Here are results for 53 molecules from US20040157845A1, “Vanilloid receptor ligands and their use in treatments” (Amgen Inc., priority 2003, published 2004).

As a reminder, the melting point is the temperature of the solid-liquid transition.

Where a name gives a salt, the structure may show the parent alone.

`O=C(Nc1ccc(Br)cc1)c1csc(Cc2c(Cl)cccc2Cl)n1` [Example 40] had a melting point of 126.6 to 132 °C.

In the case of `COc1ccc(NC(=O)c2csc(Cc3c(Cl)cccc3Cl)n2)cn1` [Example 23], the melting point lay in the range of 137.7 to 138.8 °C.

With `COc1ccccc1Cc1nc(C(=O)Nc2ccc(Br)cc2)cs1` [Example 36], the melting point is 138 to 138.4 °C.

For the molecule `O=C(Nc1ccc(C(F)(F)F)cc1)c1csc(Nc2ncccc2Cl)n1` [Example 75], the melting point lay in the range of 186 to 187 °C.

`FC(F)(F)c1ccc2nc(-c3c[nH]c(Cc4c(Cl)cccc4Cl)n3)[nH]c2c1` [Example 20, 2-{2-[(2,6-Dichlorophenyl)methyl]imidazol-4-yl}-6-(trifluoromethyl)-benzimidazole] gave a melting point of 281 to 282 °C.

Regarding `O=C(Nc1ccc(C(F)(F)F)cc1)c1coc(Cc2c(Cl)cccc2Cl)n1` [Example 19, {2-[(2,6-Dichlorophenyl)methyl](1,3-oxazol-4-yl)}-N-[4-(trifluoromethyl)-phenyl]carboxamide], the melting point is 182 to 184 °C.

In the case of `O=C(Nc1ccc(C(F)(F)F)nc1)c1csc(Cc2c(Cl)cccc2Cl)n1` [Example 24], the melting point lay in the range of 139.1 to 147.1 °C.

As to `CC(C)c1ccc(NC(=O)c2csc(Nc3c(Cl)cccc3C(F)(F)F)n2)cc1` [Example 70], the melting point was 216 to 218 °C.

`FC(F)(F)c1ccc2nc(-c3csc(Nc4c(Cl)cccc4Cl)n3)[nH]c2c1` [Example 15, (2,6-Dichloro-phenyl)-[4-(6-trifluoromethyl-1H-benzoimidazol-2-yl)-thiazol-2-yl]-amine] had a melting point of 242 to 243 °C.

For `O=C(Nc1ccc(Br)cc1)c1csc(Nc2ncccc2Cl)n1` [Example 76], the melting point lay within 226 to 258 °C.

As to `Cc1cccc(C)c1Nc1nc(C(=O)Nc2ccc(Br)cc2)cs1` [Example 65], the melting point lay within 208 to 209 °C.

Molecule `CC(C)c1ccc(NC(=O)c2cnc(Cc3c(Cl)cccc3Cl)[nH]2)cc1` (as salt: hydrochloride) [Example 12, {2-[(2,6-Dichlorophenyl)methyl]imidazol-5-yl}-N-[4-(methylethyl)phenyl]-carboxamide] showed a melting point of 210 to 212 °C.

Regarding `O=C(Nc1ccc(F)c(F)c1)c1csc(Cc2c(Cl)cccc2Cl)n1` [Example 17, {2-[(2,6-Dichlorophenyl)methyl](1,3-thiazol-4-yl)}-N-(3,4-difluorophenyl)-carboxamide], the melting point lay in the range of 113 to 116 °C.

For the molecule `O=C(Nc1ccc(C(F)(F)F)cc1)c1csc(Cc2ccccc2Cl)n1` [Example 26], the melting point was in the range of 85.5 to 94 °C.

`FC(F)(F)c1ccc2[nH]c(-c3csc(Nc4c(Cl)cccc4C(F)(F)F)n3)nc2c1` [Example 73] showed a melting point of 188 to 210 °C.

Molecule `O=C(Nc1ccc(C(F)(F)F)cc1)c1csc(Nc2c(Cl)cncc2Cl)n1` [Example 2, {2-[(3,5-Dichloro(4-pyridyl))amino](1,3-thiazol-4-yl)}-N-[4-(trifluoromethyl)-phenyl]carboxamide] had a melting point of 195 to 197 °C.

Regarding `O=C(Nc1ccc(C(F)(F)F)cc1)c1nc(Nc2c(Cl)cccc2Cl)sc1Br` [Example 14, {2-[(2,6-Dichlorophenyl)amino]-5-bromo(1,3-thiazol-4-yl)}-N-[4-(trifluoromethyl)phenyl]carboxamide], the melting point was in the range of 151 to 162 °C.

As to `O=C(Nc1ccc(Br)cc1)c1csc(Nc2c(Cl)cccc2C(F)(F)F)n1` [Example 69], the melting point was 262 to 264 °C.

`FC(F)(F)c1ccc2nc(-c3csc(Cc4c(Cl)cccc4Cl)n3)[nH]c2c1` [Example 8, 2-[(2,6-Dichlorophenyl)methyl]-4-[6-(trifluoromethyl)benzimidazol-2-yl]-1,3-thiazole] gave a melting point of 187 to 189 °C.

In the case of `CC(C)c1ccc(NC(=O)c2csc(Nc3ccccc3F)n2)cc1` [Example 58], the melting point was in the range of 136.5 to 180.1 °C.

`Clc1cc2nc(-c3csc(Cc4c(Cl)cccc4Cl)n3)[nH]c2cc1Cl` [Example 18, 4-(5,6-Dichlorobenzimidazol-2-yl)-2-[(2,6-dichlorophenyl)methyl]-1,3-thiazole] yielded a melting point of 245 to 247 °C.

The molecule `O=C(Nc1ccc(C(F)(F)F)cc1)c1csc(Nc2c(Cl)cccc2Cl)n1` [Example 63, {2-[(2,6-dichlorophenyl)amino](1,3-thiazol-4-yl)}-N-[4-(trifluoromethyl)phenyl]-carboxamide] came in with a melting point of 199 to 200 °C.

Molecule `O=C(Nc1ccc(C(F)(F)C(F)(F)F)cc1)c1csc(Cc2c(Cl)cccc2Cl)n1` [Example 47] gave a melting point of 95 to 96.4 °C.

In the case of `Cc1cccc(C)c1Nc1nc(-c2nc3cc(C(F)(F)F)ccc3[nH]2)cs1` [Example 4, (2,6-Dimethylphenyl){4-[5-(trifluoromethyl)benzimidazol-2-yl](1,3-thiazol-2-yl)}amine], the melting point lay in the range of 250 to 251 °C.

`CC(C)(C)c1ccc(NC(=O)c2csc(Cc3c(Cl)cccc3Cl)n2)cc1` [Example 49] registered a melting point of 139 to 141 °C.

As for `O=C(Nc1ccc(Br)cc1)c1csc(Nc2ccccc2Cl)n1` [Example 60], the melting point fell in the range of 220.5 to 221.3 °C.

`O=C(Nc1ccc(C(F)(F)F)cc1)c1csc(Nc2ccccc2C(F)(F)F)n1` [Example 66] displayed a melting point of 128 to 130 °C.

Turning to `O=C(Nc1ccc(Br)cc1)c1coc(Cc2c(Cl)cccc2Cl)n1` [Example 78], the melting point lay within 164 to 165 °C.

On to `O=C(Nc1ccc(C(F)(F)F)nc1)c1csc(Cc2ccccc2Cl)n1` [Example 1, {2-[(2-Chlorophenyl)methyl](1,3-thiazol-4-yl)}-N-[6-(trifluoromethyl)(3-pyridyl)]carboxamide], for which the melting point lay within 99 to 101 °C.

`Cc1nc(Cc2c(Cl)cccc2Cl)sc1C(=O)Nc1ccc(C(F)(F)F)cc1` [Example 7, {2-[(2,6-Dichlorophenyl)methyl]-4-methyl(1,3-thiazol-5-yl)}-N-[4-(trifluoromethyl)phenyl]carboxamide] gave a melting point of 180 to 183 °C.

In the case of `FC(F)(F)c1ccc2nc(-c3coc(Cc4c(Cl)cccc4Cl)n3)[nH]c2c1` [Example 21, 2-[(2,6-Dichlorophenyl)methyl]-4-[6-(trifluoromethyl)benzimidazol-2-yl]-1,3-oxazole], the melting point lay in the range of 201 to 202 °C.

Consider `O=C(Nc1ccc(Br)cc1)c1csc(Cc2ccccc2Cl)n1` [Example 33], for which the melting point is 109.4 to 110.6 °C.

`O=C(Nc1ccc(Br)cc1)c1csc(Cc2ccccc2F)n1` [Example 32]: the melting point is 100.8 to 101 °C.

As to `O=C(Nc1ccc(C(F)(F)F)cc1)c1csc(Nc2c(Cl)cccc2C(F)(F)F)n1` [Example 71], the melting point fell in the range of 243 to 244 °C.

In the case of `Cc1cccc(C)c1Nc1nc(C(=O)Nc2ccc(C(F)(F)F)cc2)cs1` [Example 3, {2-[(2,6-Dimethylphenyl)amino](1,3-thiazol-4-yl) }-N-[4-(trifluoromethyl)-phenyl]carboxamide], the melting point fell in the range of 216 to 218 °C.

As to `FC(F)(F)c1ccc2[nH]c(-c3csc(Nc4ncccc4Cl)n3)nc2c1` [Example 6, (3-Chloro(2-pyridyl)){4-[5-(trifluoromethyl)benzimidazol-2-yl](1,3-thiazol-2-yl)}amine], the melting point is 207 to 208 °C.

Regarding `Cc1cccc(C)c1Nc1nc(C(=O)Nc2ccc(C(C)C)cc2)cs1` [Example 64], the melting point fell in the range of 128 to 133 °C.

In turn, `O=C(Nc1ccc(Br)cc1)c1csc(Nc2c(Cl)cncc2Cl)n1` [Example 53] yielded a melting point of 194.9 to 196.6 °C.

`O=C(Nc1ccc(Br)cc1)c1csc(Cc2c(F)cccc2Cl)n1` [Example 34] showed a melting point of 111.8 to 112.5 °C.

Regarding `O=C(Nc1ccc(Br)cc1)c1csc(Nc2ccccc2F)n1` [Example 55], the melting point fell in the range of 198.4 to 199.7 °C.

`O=C(Nc1ccc(C(F)(F)F)nc1)c1csc(Cc2c(F)cccc2Cl)n1` [Example 35] yielded a melting point of 123.4 to 125.1 °C.

In turn, `O=C(Nc1ccc(C(F)(F)F)cc1)c1cnc(Cc2c(Cl)cccc2Cl)[nH]1` [Example 11, {2-[(2,6-Dichlorophenyl)methyl]imidazol-5-yl}-N-[4-(trifluoromethyl)-phenyl]carboxamide] displayed a melting point of 253 to 255 °C.

The molecule `O=C(Nc1ccc(Br)cc1)c1csc(Nc2c(Cl)cccc2Cl)n1` [Example 56] showed a melting point of 125.9 to 126.9 °C.

For `O=C(Nc1ccc(Br)cc1)c1csc(Nc2ccccc2C(F)(F)F)n1` [Example 68], the melting point lay in the range of 151 to 153 °C.

As to `O=C(Nc1ccc(Br)cc1)c1csc(Nc2cccnc2Cl)n1` [Example 52], the melting point fell in the range of 214.7 to 216.2 °C.

On to `Clc1cccc(Cl)c1Nc1nc(-c2nc3cc(Br)ccc3[nH]2)cs1` [Example 74], for which the melting point fell in the range of 267 to 268 °C.

In turn, `O=C(Nc1ccc(Br)cc1)c1cnc(Cc2c(Cl)cccc2Cl)[nH]1` (as salt: hydrochloride) [Example 13, {2-[(2,6-Dichlorophenyl)methyl]imidazol-5-yl}-N-(4-bromophenyl)carboxamide] had a melting point of 253 to 254 °C.

`Cc1ccccc1Cc1nc(C(=O)Nc2ccc(Br)cc2)cs1` [Example 37] showed a melting point of 121.9 to 123.4 °C.

`CC(C)c1ccc(NC(=O)c2cnc(Cc3c(Cl)cccc3Cl)s2)cc1` [Example 9, {2-[(2,6-Dichlorophenyl)methyl](1,3-thiazol-5-yl)}-N-[4-(methylethyl)phenyl]-carboxamide]: the melting point lay within 169 to 175 °C.

Consider `CN(C)c1ccc(NC(=O)c2csc(Cc3c(Cl)cccc3Cl)n2)cc1` [Example 50], for which the melting point lay in the range of 172 to 174 °C.

In the case of `CC(=O)c1ccc(NC(=O)c2csc(Cc3c(Cl)cccc3Cl)n2)cc1` [Example 22], the melting point lay within 98.8 to 106.9 °C.

The molecule `CC(C)c1ccc(NC(=O)c2csc(Nc3ccccc3C(F)(F)F)n2)cc1` [Example 67] gave a melting point of 96 to 100 °C.

Molecule `O=C(Nc1ccc(C(F)(F)F)cc1)c1cnc(Cc2c(Cl)cccc2Cl)s1` [Example 10, {2-[(2,6-Dichlorophenyl)methyl](1,3-thiazol-5-yl)}-N-[4-(trifluoromethyl)-phenyl]carboxamide] came in with a melting point of 163 to 164 °C.
